# Measurements taken from patent publication US12544372B2, “Methods of treating rheumatoid arthritis, chronic spontaneous urticaria, and systemic lupus erythematosis using an inhibitor of Bruton's tyrosine kinase” (Genentech, Inc., priority 2019, dated 2026).
# Marks after values point to notes of the source that are not given here.
# What was measured:
# Format in all cases: in vivo, human
# ESR = assay: RA study: ESR versus baseline
# Description: As used herein, “ESR” refers to “Erythrocyte Sedimentation Rate”, which is a test that indirectly measures the degree of inflammation in the body by measuring how quickly red blood cells settle at the bottom of a test tube containing a sample of a patient's blood. See www.healthline.com/health/esr (last visited Aug. 7, 2018). A positive ESR may be determined using the Westergren method according to specifications by the International Council for Standardization in Haematology, or by automated methods (e.g., TEST1 from Alifax). See https://icsh(dot)org/guidelines; Lou, J. M. et al., Int. Jnl. Lab. Hem. 2011, 33:125-132.
# Disease Activity Score 28. The DAS 28-4 (CRP) and the DAS 28-4 (ESR) are calculated as follows. Assessments: (i) Tender joint count of 28 joints (TJC28), square-root transformed; (ii) Swollen joint count of 28 joints (SJC28), square-root transformed; (iii) Acute-phase reactant (erythrocyte sedimentation rate [ESR mm/hr] or high sensitivity C-reactive protein [hsCRP mg/L]), log transformed; (iv) Patient's global assessment of disease activity on visual analog scale (0-100 mm).
# IL-6 = assay: RA study biomarker: IL-6 (immunoassay)
# Experimental: (§1) Biomarkers were evaluated in serum or plasma samples at baseline and weeks 1, 4, and 12 in patients with available samples (cohort 1: n=438; cohort 2: n=86). The biomarkers evaluated in this assessment were chemokine [C-C motif] ligand 4 (CCL4), IL-6, and TNF-like cytokine 1A (TL1A). Total IgM, IgG, rheumatoid factor IgM autoantibody (RF), CCL4, TL1A, IL-6, and anti-CCP autoantibody (ACPA IgG) levels were analyzed with immunoassays. CD19^+ B cells and CD3^+ T cells were measured by flow cytometry. The proportion of patients achieving an ACR50 response at week 12 and the change in DAS28 score by week 12 were assessed relative to seropositivity (RF and/or ACPA positive at baseline) or baseline levels of RF in both cohorts. To select which biomarkers to evaluate in this trial, BTK-dependent myeloid biomarkers were identified using peripheral blood CD14^+ monocytes stimulated with immune-complexes in the presence or absence of a BTK inhibitor. In brief, the expression levels of genes in human monocytes were assayed under conditions of no stimulation; with human serum albumin immune complex stimulation; with stimulation and a low concentration of a BTK inhibitor with similar characteristics to fenebrutinib; or with stimulation and a high concentration of the BTK inhibitor. […] Genes annotated with cytokine activity were selected. The color bar represents normalized gene expression.
# [1] = test system: Rheumatoid factor (RF) IgM autoantibody; assay: RA study biomarker: rheumatoid factor IgM autoantibody; details: for Rheumatoid factor (RF) IgM autoantibody levels: by Week 12 (92% placebo)
# Experimental: as §1
# CD19+ B cells [2] = assay: RA study: peripheral CD19+ B cells (flow cytometry)
# Experimental: as §1
# CD3+ T cells = assay: RA study: CD3+ T cells (flow cytometry); details: cohort 1 and cohort 2, week 1
# Experimental: as §1
# RA study: safety = assay: RA study: safety
# Description: Investigator conducted assessments: Joint counts and Physician's Global Assessment of Arthritis visual analog scale (VAS), safety assessments (adverse events, vital signs, concomitant medications, review of laboratory data). For Cohort 1 only: SC comparator drug injection; For Cohorts 1 and 2: Administration of oral study drug.
# [3] = test system: IgG anti-FcERI autoantibodies; assay: CSU study: serum IgG anti-FcERI autoantibodies (immunoassay); details: Cohorts 1 and 2, serum, week 0 to 8
# Experimental: Some patient samples were also evaluated specifically for IgG anti-FcERI autoantibodies, and the level of those autoantibodies over time in fenebrutinib-administered patients compared to placebo-administered patients is shown in FIG. 37. Serum samples were collected at 0 and 8 weeks from patients receiving fenebrutinib (left) versus placebo (right), with samples sizes for each group shown. Prior to direct FcERI immunoassay, samples were split and pre-incubated with equimolar concentrations of rhFcERI or an unrelated control protein. Reactivity levels were determined relative to a mouse monoclonal antibody standard. IgG anti-FcERI was defined as the difference in reactivity between the split samples, and is shown in relative units (RU). The bold lines without markers represent the average of patients who were anti-FcERI positive at baseline. The dotted line represents the mean+3 standard deviations of healthy volunteer samples. Some sample lines for IgG anti-FcERI negative patients overlap at the lower end of the assay range. […] Without wishing to be bound by any theory, it is thought that anti-FcERI may be a driver of positive CU index test results, and are associated with refractory CSU.
# CD19+ B cells [4] = assay: SLE study biomarker: CD19+ B cells
# Experimental: The following biomarkers were explored according to the biomarker objectives provided above in the Study Objectives. In Table 13, biomarkers are measured at baseline and subsequent timepoints during and after treatment. One set of biomarkers evaluated is the plasmablast signature. Plasmablasts are rapidly dividing, short-lived antibody secreting cells. While they represent a small proportion of B cells in the blood, they are responsible for a majority of antibody transcripts found in whole blood mRNA. The plasmablast signature comprises the biomarkers IgJ, Mzbl, and Txndc5. The gene expression of IgJ, Mzbl, and Txndc5 may be measured, for example, a polypeptide expression by evaluating the level of mRNA for said gene in a patient's blood relative to a reference level.
compound,measurement,setting,value
"C[C@H]1CN(C2COC2)CCN1c1ccc(Nc2cc(-c3ccnc(N4CCn5c(cc6c5CC(C)(C)C6)C4=O)c3CO)cn(C)c2=O)nc1 [fenebrutinib, (S)-2-(3′-(hydroxymethyl)-1-methyl-5-((5-(2-methyl-4-(oxetan-3-yl)piperazin-1-yl)pyridin-2-yl)amino)-6-oxo-1,6-dihydro-[3,4′-bipyridin]-2′-yl)-7,7-dimethyl-2,3,4,6,7,8-hexahydro-1H-cyclopenta[4,5]pyrrolo[1,2-a]pyrazin-1-one]","ESR, % of BL ESR","ESR; Cohort 1, 200 mg BID, Week 12",63%
same,ESR levels,"ESR; Cohort 1, Weeks 2, 4 and 8",reduced ESR levels
same,ESR levels,"ESR; Cohort 2, Week 8 and Week 12",reduced ESR levels
same,IL-6 reduction relative to placebo,"IL-6; Cohort 1, by week 12",not observed
same,IL-6 levels relative to placebo,"IL-6; cohort 2, 200 mg twice daily, by week 12",−50%
same,Rheumatoid factor (RF) IgM autoantibody levels,[1]; 150 mg QD arm,66%
same,Rheumatoid factor (RF) IgM autoantibody levels,[1]; 200 mg BID arm,64%
same,RF IgM median reduction relative to placebo,"[1]; cohort 1, 200 mg twice daily, by week 12",−29%
same,peripheral CD19+ B cells relative to placebo,"CD19+ B cells [2]; cohort 1 and cohort 2, by week 12",−4-13%
same,transient increase of peripheral CD19+ B cells relative to placebo,"CD19+ B cells [2]; cohort 1 and cohort 2, fenebrutinib treated groups, by week 1",45-79%
same,CD3+ T cells relative to placebo,CD3+ T cells,+10-15%
same,overall safety profile,RA study: safety; RA study,comparable to placebo and ADA
same,Grade 3 LFT elevations,RA study: safety; fenebrutinib arms versus placebo and ADA,numerically more
same,IgG anti-FcERI autoantibodies,[3],significant reduction
same,"CD19+ B cells, Median Change from Baseline at Week 48",CD19+ B cells [4]; 150 mg QD,−57.0* cells/μl
same,"CD19+ B cells, Median Change from Baseline at Week 48",CD19+ B cells [4]; 200 mg BID,−57.5* cells/μl
